In US7317000B2, “Glucose-dependent insulins” (Novo Nordisk A/S, priority 2001, dated 2008) one finds Kd data, which are given here for two substances.

The test deals with solubilized human insulin receptor (Homo sapiens, UniProt P06213). Description: Insulin receptor binding by competition with 125I-TyrA14 human insulin (scintillation counting). To be noted: antibody-captured solubilized receptor on Scintiplates.
solubilized human insulin receptor, sequence (P06213 28-758 limits assumed): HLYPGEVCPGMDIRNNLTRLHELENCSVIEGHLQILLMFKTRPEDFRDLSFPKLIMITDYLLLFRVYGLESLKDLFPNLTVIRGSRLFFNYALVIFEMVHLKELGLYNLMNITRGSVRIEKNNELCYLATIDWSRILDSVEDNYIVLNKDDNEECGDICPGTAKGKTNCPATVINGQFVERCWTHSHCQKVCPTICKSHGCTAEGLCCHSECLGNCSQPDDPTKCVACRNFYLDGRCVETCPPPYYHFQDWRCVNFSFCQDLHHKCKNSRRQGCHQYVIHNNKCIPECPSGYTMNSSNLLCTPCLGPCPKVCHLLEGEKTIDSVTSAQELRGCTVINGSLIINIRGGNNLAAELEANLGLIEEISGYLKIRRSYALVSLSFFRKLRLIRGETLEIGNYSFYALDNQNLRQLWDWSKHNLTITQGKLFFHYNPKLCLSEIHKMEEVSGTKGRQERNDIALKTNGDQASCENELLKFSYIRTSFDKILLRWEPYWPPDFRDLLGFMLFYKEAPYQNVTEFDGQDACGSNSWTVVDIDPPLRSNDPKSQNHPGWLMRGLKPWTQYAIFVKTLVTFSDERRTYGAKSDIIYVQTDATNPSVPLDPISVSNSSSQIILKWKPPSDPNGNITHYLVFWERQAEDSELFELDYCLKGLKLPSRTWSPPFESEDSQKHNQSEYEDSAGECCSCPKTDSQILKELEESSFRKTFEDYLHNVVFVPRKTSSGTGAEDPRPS
solubilized human insulin receptor, sequence (P06213 763-1382 partner limits assumed): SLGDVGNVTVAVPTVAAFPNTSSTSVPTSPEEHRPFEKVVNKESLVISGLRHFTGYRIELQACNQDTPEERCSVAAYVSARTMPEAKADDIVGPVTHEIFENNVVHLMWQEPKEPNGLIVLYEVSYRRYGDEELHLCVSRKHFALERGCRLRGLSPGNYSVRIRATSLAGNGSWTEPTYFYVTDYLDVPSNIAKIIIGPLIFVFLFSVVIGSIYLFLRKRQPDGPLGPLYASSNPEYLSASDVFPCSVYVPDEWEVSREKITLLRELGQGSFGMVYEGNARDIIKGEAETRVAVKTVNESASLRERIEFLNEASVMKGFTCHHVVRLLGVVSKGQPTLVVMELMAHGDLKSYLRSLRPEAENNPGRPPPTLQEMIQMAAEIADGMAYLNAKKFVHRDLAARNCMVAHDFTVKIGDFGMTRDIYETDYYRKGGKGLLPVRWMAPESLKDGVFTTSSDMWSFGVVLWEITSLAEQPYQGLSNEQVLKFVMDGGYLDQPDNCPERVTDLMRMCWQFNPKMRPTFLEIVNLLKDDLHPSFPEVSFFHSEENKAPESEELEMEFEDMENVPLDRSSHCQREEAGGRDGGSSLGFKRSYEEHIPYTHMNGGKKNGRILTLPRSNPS

In the case of “Lys^B29-(N^ε(γ-L-glutamyl-α-D-glucamide, N^α-(3-borono-5-nitro-benzoyl)) des(B30) human insulin [Compound 10]”, the Kd was 16 pM.

In turn, “Lys^B29(N^ε-(4-carboxyphenylalanine-N-methyl-glucamide), N^α-(4-borono-phenylsulfonyl)) des(B30), human insulin [Compound 23]” gave a Kd of 15 pM.
